Results: ChEMBL document CHEMBL4359907, “Scalable and cost-effective tosylation-mediated synthesis of antifungal and fungal diagnostic 6″-Modified amphiphilic kanamycins” (Eur J Med Chem, 2019)
Active and inactive are the calls of the source. No cut-off for these calls is given here.

Experiments:
[1] = system: Rhodotorula mucilaginosa; experiment: Antifungal activity against Rhodotorula pilimanae ATCC 26423 incubated for 24 to 36 hrs by two fold dilution method; type: functional
[2] = system: Staphylococcus aureus; experiment: Antibacterial activity against methicillin-resistant Staphylococcus aureus ATCC 43300 incubated for 18 hrs by two fold dilution method; type: functional; settings: ATCC 43300, 18 h
[3] = system: Escherichia coli; experiment: Induction of membrane permeabilization in Escherichia coli ATCC 25922 at MIC incubated for 5 mins by phase contrast microscopic method; type: functional, organism-based
[4] = system: HeLa; experiment: Cytotoxicity against human HeLa cells assessed as reduction in cell viability incubated for 24 hrs by MTT assay; type: cell-based
[5] = system: Escherichia coli; experiment: Induction of membrane permeabilization in Escherichia coli ATCC 25922 at MIC incubated for 60 mins by phase contrast microscopic method; type: functional, organism-based
[6] = system: Escherichia coli; experiment: Antibacterial activity against Escherichia coli ATCC 25922 incubated for 18 hrs by two fold dilution method; type: functional; settings: ATCC 25922, 18 h
[7] = system: Staphylococcus aureus; experiment: Induction of membrane permeabilization in Staphylococcus aureus at 1/2 times MIC incubated for 5 mins by phase contrast microscopic method; type: functional, organism-based
[8] = system: Cryptococcus neoformans; experiment: Antifungal activity against Cryptococcus neoformans H99 incubated for 24 to 36 hrs by two fold dilution method; type: functional
[9] = system: Cryptococcus neoformans; experiment: Antifungal activity against Cryptococcus neoformans VR-54 incubated for 24 to 36 hrs by two fold dilution method; type: functional
[10] = system: Staphylococcus aureus; experiment: Antibacterial activity against Staphylococcus aureus ATCC 25923 incubated for 18 hrs by two fold dilution method; type: functional; settings: ATCC 25923, 18 h
[11] = system: Candida albicans; experiment: Induction of membrane permeabilization in azole-susceptible Candida albicans MYA2876 at 1/4 times MIC incubated for 5 mins by phase contrast microscopic method; type: functional, organism-based
[12] = system: Staphylococcus aureus; experiment: Induction of membrane permeabilization in Staphylococcus aureus at 1/2 times MIC incubated for 60 mins by phase contrast microscopic method; type: functional, organism-based
[13] = system: Fusarium graminearum; experiment: Antifungal activity against Fusarium graminearum B4-5A incubated for 24 to 36 hrs by two fold dilution method; type: functional
[14] = system: Staphylococcus aureus; experiment: Antibacterial activity against methicillin-resistant Staphylococcus aureus ATCC 33591 incubated for 18 hrs by two fold dilution method; type: functional; settings: ATCC 33591, 18 h
[15] = system: Candida albicans; experiment: Induction of membrane permeabilization in azole-resistant Candida albicans 64124 at 1/4 times MIC incubated for 5 mins by phase contrast microscopic method; type: functional, organism-based
[16] = system: Candida albicans; experiment: Antifungal activity against azole-susceptible Candida albicans MYA2876 incubated for 24 to 36 hrs by two fold dilution method; type: functional
[17] = system: Candida albicans; experiment: Antifungal activity against azole-resistant Candida albicans 64124 incubated for 24 to 36 hrs by two fold dilution method; type: functional

**Q.** How did the MIC [1] turn out when Cl.Cl.Cl.Cl.NC[C@H]1O[C@H](O[C@H]2[C@H](O)[C@@H](O[C@H]3O[C@H](CNC(=O)c4ccccc4-c4c5ccc(=O)cc-5oc5cc(O)ccc45)[C@@H](O)[C@H](N)[C@H]3O)[C@H](N)C[C@@H]2N)[C@H](O)[C@@H](O)[C@@H]1O was run?
**A.** 32 µg/mL

**Q.** And the MIC [2]?
**A.** > 256 µg/mL

**Q.** And the Activity [3]?
**A.** inactive

**Q.** What about the IC50 [4] of the same compound?
**A.** > 100 µg/mL

**Q.** What about the Activity [5] of the same compound?
**A.** Active

**Q.** What about the MIC [6] of the same compound?
**A.** 32 µg/mL

**Q.** What about the Activity [7] of the same compound?
**A.** inactive

**Q.** What about the MIC [8] of the same compound?
**A.** 64 µg/mL

**Q.** And the MIC [9]?
**A.** 64 µg/mL

**Q.** What about the MIC [10] of the same compound?
**A.** 64 µg/mL

**Q.** And the Activity [11]?
**A.** Active

**Q.** And the Activity [12]?
**A.** Active

**Q.** And the MIC [13]?
**A.** 32 µg/mL

**Q.** And the MIC [14]?
**A.** > 256 µg/mL

**Q.** What about the Activity [15] of the same compound?
**A.** Active

**Q.** What about the MIC [16] of the same compound?
**A.** 256 µg/mL

**Q.** What about the MIC [17] of the same compound?
**A.** 128 µg/mL
